Patent publication US7223759B2, “Antibacterial 3,5-diaminopiperidine-substituted aromatic and heteroaromatic compounds” (Anadys Pharmaceuticals, Inc., priority 2003, dated 2007)

Each molecule was assayed on Escherichia coli (ATCC25922) or Staphylococcus aureus (ATCC25923) (assay: Antibacterial MIC, microdilution method in Mueller-Hinton medium). Settings: Escherichia coli, 18 h, MIC in E. coli or S. aureus; two-fold serial dilutions 64 to 0.5 μg/ml in duplicate; 18 hours of incubation at 35° C.; read-out: Potency (MIC).
Format: cell-based
Method in brief: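 Two-fold serial dilutions from 64 to 0.5 μg/ml, in duplicate, by broth microdilution in Mueller-Hinton medium (NCCLS M7-A5). MIC taken as the lowest concentration preventing visible growth after 18 h at 35° C.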

Row | MIC | Structure (SMILES)
1 | < 64 µg/mL | Cl.N[C@@H]1C[C@H](N)CN(c2nc(NNc3cc(Cl)ccc3Cl)nc(N3C[C@H](N)C[C@H](N)C3)n2)C1 [N-(4,6-Bis-((3R,5S)-3,5-diamino-piperidin-1-yl)-[1,3,5]triazin-2-yl)-N′-(2,5-Dichloro-phenyl)-hydrazine]
2 | < 16 µg/mL | N[C@@H]1C[C@H](N)CN(c2nc(Nc3ccc(NC(=O)c4ccc(N5Cc6ccccc6C5)cc4O)cc3)nc(N3C[C@H](N)C[C@H](N)C3)n2)C1 [N-{4-[4-(1,3-dihydro-isoindol-2-yl)-2-hydroxy-benzoylamino]-phenyl}-4,6-Bis-((3R,5S)-3,5-diamino-piperidin-1-yl)-[1,3,5]triazine-2-amine]
3 | > 64 µg/mL | Cl.NC(=O)c1[nH]cnc1Nc1nc(N2C[C@H](N)C[C@H](N)C2)nc(N2C[C@H](N)C[C@H](N)C2)n1 [N-(5-carbamoyl-1H-imidazol-4-yl)-4,6-Bis-((3R,5S)-3,5-diamino-piperidin-1-yl)-[1,3,5]triazine-2-amine]
4 | > 64 µg/mL | Cl.Oc1cccc2ccc(Nc3nc(N4CCCCC4)nc(N4CCCCC4)n3)nc12 [N-(8-hydroxy-quinolin-2-yl)-4,6-Bis-((3R,5S)-3,5-diamino-piperidin-1-yl)-[1,3,5]triazine-2-ammine]
5 | > 64 µg/mL | Cl.NS(=O)(=O)c1ccc(NC(=O)c2ccc(Nc3nc(N4CCCCC4)nc(N4CCCCC4)n3)cc2O)cc1 [N-[3-hydroxy-4-{4-sulfamoyl-phenylcarbamoyl)-phenyl]-4,6-Bis-((3R,5S)-3,5-diamino-piperidin-1-yl)-[1,3,5]triazine-22-amine]

Same assay, conditions: Escherichia coli, 18 h, read-out: Potency (MIC)

Row | Structure (SMILES) | MIC
6 | N[C@@H]1C[C@H](N)CN(c2nc(Nc3cccc(NC(=O)c4ccc(Cl)cc4O)c3)nc(N3C[C@H](N)C[C@H](N)C3)n2)C1 [N-[3-(4-chloro-2-hydroxy-benzoylamino)-phenyl]-4,6-Bis-((3R,5S)-3,5-diamino-piperidin-1-yl)-[1,3,5]triazine-2-amine] | < 16 µg/mL
7 | CSc1ccc(CNc2nc(N3C[C@H](N)C[C@H](N)C3)nc(N3C[C@H](N)C[C@H](N)C3)n2)cc1 [N-(4-methylsulfanyl-benzyl)-4,6-Bis-((3R,5S)-3,5-diamino-piperidin-1-yl)-[1,3,5]triazine-2-amine] | < 64 µg/mL
8 | CC(=O)c1ccc(Nc2nc(N3C[C@H](N)C[C@H](N)C3)nc(N3CCC[C@@H](O)C3)n2)cc1 [1-{4-[4-((3R,5S)-3,5-Diamino-piperidin-1-yl)-6-((R)-3-hydroxy-piperidin-1-yl)-[1,3,5]triazin-2-ylamino]-phenyl}-ethanone] | > 64 µg/mL
9 | Cc1ccc2nc(-c3ccc(Nc4nc(N5C[C@H](N)C[C@H](N)C5)nc(N5C[C@H](N)C[C@H](N)C5)n4)cc3)sc2c1 [N-[4-(6-methyl-benzothiazol-2-yl)-phenyl]-4,6-Bis-((3R,5S)-3,5-diamino-piperidin-1-yl)-[1,3,5]triazine-2-amine] | < 16 µg/mL
10 | N[C@@H]1C[C@H](N)CN(c2nc(NNC(=O)c3ccccc3O)nc(N3C[C@H](N)C[C@H](N)C3)n2)C1 [2-Hydroxy-benzoicacid N′-[4-((3R,5S)-3,5-diamino-piperidin-1-yl)-6-((3S,5R)-3,5-diamino-piperidin-1-yl)-[1,3,5]triazin-2-yl]-hydrazide] | < 64 µg/mL
11 | COc1ccc(Nc2nc(N3C[C@H](N)C[C@H](N)C3)nc(N3C[C@H](N)C[C@H](N)C3)n2)cc1 [N-(4-methoxy-phenyl)-4,6-Bis-((3R,5S)-3,5-diamino-piperidin-1-yl)-[1,3,5]triazine-2-amine] | > 64 µg/mL
12 | N[C@@H]1C[C@H](N)CN(c2nc(Nc3ccc(C(=O)CC(=O)Nc4ccccc4C(F)(F)F)cc3)nc(N3C[C@H](N)C[C@H](N)C3)n2)C1 [N-{4-[2-(2-trifluoromethyl-phenylcarbamoyl)-acetyl]-phenyl}-4,6-Bis-((3R,5S)-3,5-diamino-piperidin-1-yl)-[1,3,5]triazine-2-amine] | < 64 µg/mL
13 | N[C@@H]1C[C@H](N)CN(c2nc(Nc3cccc(NC(=O)c4cccc(O)c4O)c3)nc(N3C[C@H](N)C[C@H](N)C3)n2)C1 [N-[3-(2,3-dihydroxy-benzoylamino)-phenyl]-4,6-Bis-((3R,5S)-3,5-diamino-piperidin-1-yl)-[1,3,5]triazine-2-amine] | < 16 µg/mL
14 | N[C@@H]1C[C@H](N)CN(c2nc(Nc3ccc(NC(=O)c4ccc(C(F)(F)F)nc4O)cc3)nc(N3C[C@H](N)C[C@H](N)C3)n2)C1 [N-{4-[(2-hydroxy-6-trifluoromethyl-pyridine-3-carbonyl)-amino]-phenyl}-4,6-Bis-((3R,5S)-3,5-diamino-piperidin-1-yl)-[1,3,5]triazine-2-amine] | < 16 µg/mL
15 | COc1ccc(Nc2nc(N3C[C@H](N)C[C@H](N)C3)nc(N3C[C@H](N)C[C@H](N)C3)n2)c(NC(=O)c2cccc([N+](=O)[O-])c2O)c1 [N-[2-(2-hydroxy-3-nitro-benzoylamino)-4-methoxy-phenyl]-4,6-Bis-((3R,5S)-3,5-diamino-piperidin-1-yl)-[1,3,5]triazine-2-amine] | > 64 µg/mL
16 | NC[C@@H]1C[C@@H](O)CN1c1nc(Nc2ccc(C(=O)CC(=O)Nc3ccc(F)c(F)c3)cc2)nc(N2C[C@H](N)C[C@H](N)C2)n1 [3-{4-[4-((2S,4R)-2-Aminomethyl-4-hydroxy-pyrrolidin-1-yl)-6-((3R,5S)-3,5-diamino-piperidin-1-yl)-[1,3,5]triazin-2-ylamino]-phenyl}-N-(3,4-difluoro-phenyl)-3-oxo-propionamide] | < 64 µg/mL
17 | N[C@@H]1C[C@H](N)CN(c2nc(NNC3=NCCCN3)nc(N3C[C@H](N)C[C@H](N)C3)n2)C1 [N-(4,6-Bis-((3R,5S)-3,5-diamino-piperidin-1-yl)-[1,3,5]triazin-2-yl)-N′-(1,4,5,6-tetrahydro-pyrimidin-2-yl)-hydrazine] | > 64 µg/mL
18 | N[C@@H]1C[C@H](N)CN(c2nc(Nc3nc4ccc([N+](=O)[O-])cc4s3)nc(N3C[C@H](N)C[C@H](N)C3)n2)C1 [N-(6-nitro-benzothiazol-2-yl)-4,6-Bis-((3R,5S)-3,5-diamino-piperidin-1-yl)-[1,3,5]triazine-2-amine] | < 16 µg/mL
19 | N[C@@H]1C[C@H](N)CN(c2nc(Nc3ccc(NS(=O)(=O)c4cc(Cl)cc(Cl)c4)c(O)c3)nc(N3C[C@H](N)C[C@H](N)C3)n2)C1 [N-[4-(3,5-dichloro-benzenesulfonylamino)-3-hydroxy-phenyl]-4,6-Bis-((3R,5S)-3,5-diamino-piperidin-1-yl)-[1,3,5]triazine-2-amine] | < 64 µg/mL
20 | Cc1ccc(C(=O)Nc2ccc(Nc3nc(N4C[C@H](N)C[C@H](N)C4)nc(N4C[C@@H](N)C[C@H]4CN)n3)cc2O)cc1 [N-{4-[4-((2S,4S)-4-Amino-2-aminomethyl-pyrrolidin-1-yl)-6-((3R,5S)-3,5-diamino-piperidin-1-yl)-[1,3,5]triazin-2-ylamino]-2-hydroxy-phenyl}-4-methyl-benzamide] | < 64 µg/mL
21 | N[C@@H]1C[C@H](N)CN(c2nc(Nc3ccc(C(=O)CC(=O)Nc4ccc(Cl)cc4Cl)cc3)nc(N3C[C@H](N)C[C@H](N)C3)n2)C1 [N-{4-[2-(2,4-dichloro-phenylcarbamoyl)-acetyl]-phenyl}-4,6-Bis-((3R,5S)-3,5-diamino-piperidin-1-yl)-[1,3,5]triazine-2-amine] | < 64 µg/mL
22 | N[C@@H]1C[C@H](N)CN(c2nc(NNc3ccccn3)nc(N3C[C@H](N)C[C@H](N)C3)n2)C1 [N-(4,6-Bis-((3R,5S)-3,5-diamino-piperidin-1-yl)-[1,3,5]triazin-2-yl)-N′-Pyridin-2-yl-hydrazine] | > 64 µg/mL
23 | COc1ccc(S(=O)(=O)Nc2ccc(Nc3nc(N4C[C@H](N)C[C@H](N)C4)nc(N4C[C@H](N)C[C@H](N)C4)n3)cc2O)cc1OC [N-[4-(3,4-dimethoxy-benzenesulfonylamino)-3-hydroxy-phenyl]-4,6-Bis-((3R,5S)-3,5-diamino-piperidin-1-yl)-[1,3,5]triazine-2-amine] | > 64 µg/mL
24 | N[C@@H]1C[C@H](N)CN(c2nc(Nc3cccc(CO)c3)nc(N3C[C@H](N)C[C@H](N)C3)n2)C1 [N-(3-hydroxymethyl-phenyl)-4,6-Bis-((3R,5S)-3,5-diamino-piperidin-1-yl)-[1,3,5]triazine-2-amine] | > 64 µg/mL
25 | Cc1ccc(S(=O)(=O)N(Cc2ccccc2)c2ccc(Nc3nc(N4C[C@H](N)C[C@H](N)C4)nc(N4C[C@H](N)C[C@H](N)C4)n3)cc2O)cc1 [N-{4-[benzyl-(toluene-4-sulfonyl)-amino]-3-hydroxy-phenyl}-4,6-Bis-((3R,5S)-3,5-diamino-piperidin-1-yl)-[1,3,5]triazine-2-amine] | < 16 µg/mL
26 | Cc1ccc(C(=O)Nc2ccc(Nc3nc(N4C[C@H](N)C[C@H](N)C4)nc(N4CC[C@H](O)[C@@H]4CN)n3)cc2O)cc1 [N-{4-[4-((2S,3S)-2-Aminomethyl-3-hydroxy-pyrrolidin-1-yl)-6-((3R,5S)-3,5-diamino-piperidin-1-yl)-[1,3,5]triazin-2-ylamino]-2-hydroxy-phenyl}-4-methyl-benzamide] | < 16 µg/mL
27 | CCCCCCCCCC(=O)Nc1ccc(S(=O)(=O)Nc2ccc(Nc3nc(N4C[C@H](N)C[C@H](N)C4)nc(N4C[C@H](N)C[C@H](N)C4)n3)cc2O)cc1 [N-[4-(4-decanoylamino-benzenesulfonylamino)-3-hydroxy-phenyl]-4,6-Bis-((3R,5S)-3,5-diamino-piperidin-1-yl)-[1,3,5]triazine-2-amine] | < 16 µg/mL

Same assay, conditions: MIC in E. coli or S. aureus; two-fold serial dilutions 64 to 0.5 μg/ml in duplicate; 18 hours of incubation at 35° C.

Row | Structure (SMILES) | Potency (MIC)
28 | NC[C@@H]1C[C@@H](O)CN1c1nc(Nc2ccc(C(=O)CC(=O)Nc3ccc(SC(F)(F)F)cc3)cc2)nc(N2C[C@H](N)C[C@H](N)C2)n1 [3-{4-[4-((2S,4RE)-2-Aminomethyl-4-hydroxy-pyrrolidin-1-yl)-6-((3R,5S)-3,5-diamino-piperidin-1-yl)-[1,3,5]triazin-2-ylamino]-phenyl}-3-oxo-N-(4-trifluoromethylsulfanyl-phenyl)-propionamide] | ++ (++ means MIC<16 μg/ml in E. coli or S. aureus)
